The target in this assay is T1, FKBP (Homo sapiens, UniProt P62942).
T1 construct: made in house; host or cells: E. coli
The assay is described as follows: Screening for ligands using 13C/1H NMR correlation spectra of 13C-enriched FKBP. The format is binding. On the procedure: Uniformly ^13C-enriched FKBP was prepared in accordance with the procedures detailed above. […]
Two-dimensional ^13C/^1H NMR spectra were generated at 30° C. on a Bruker DRX500 NMR spectrometer equipped with a triple resonance probe and Bruker sample changer. The ^13C/^1H HSQC spectra were acquired as 64×1024 complex points using sweep widths of 3771 Hz (^13C, t1) and 8333 Hz (^1H, t2). A delay of 1 second between scans and 8 scans per free induction decay (fid) were employed in the data collection. All NMR spectra were processed and analyzed on Silicon Graphics computers.
A first two-dimensional ^13C/^1H NMR correlation spectrum was acquired for the ^13C-labeled FKBP target molecule as described above. The FKBP target was then exposed to a library mixture of test compounds. Stock solutions of the compounds were made at 100 mM and 1 M. In addition, a combination library was prepared which contained 8-10 compounds per sample at a concentration of 100 mM for each compound.
The pH of the 1 M stock solution was adjusted with acetic acid and ethanolamine so that no pH change was observed upon a 1/10dilution with a 100 mM phosphate buffered solution (pH 7.0). It is important to adjust the pH, because small changes in pH can alter the chemical shifts of the biomolecules and complicate the interpretation of the NMR data.
The compounds in the library were selected on the basis of size (molecular weight=100-300) and molecular diversity. The molecules in the collection had different shapes (for example, flat aromatic rings(s), puckered aliphatic rings(s), straight and branched chain aliphatics with single, double, or triple bonds) and diverse functional groups (for example, carboxylic acids, esters, ethers, amines, aldehydes, ketones, and various heterocyclic rings) to maximize the possibility of discovering compounds that interact with widely diverse binding sites. […]

T1 sequence (P62942 whole entry): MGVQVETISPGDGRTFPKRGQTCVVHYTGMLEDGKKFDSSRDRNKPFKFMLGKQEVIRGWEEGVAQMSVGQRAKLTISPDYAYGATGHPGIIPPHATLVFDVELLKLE

Regarding `c1ccc(-c2ncc[nH]2)cc1` [2-phenylimidazole], the “involvement of alanyl residues in binding (13C/1H correlation spectra)” value (FKBP selectively 13C labeled at alanyl residues, 2-phenylimidazole 0.25 mM) is “none of the alanyl residues are involved in the binding”. For the same molecule, where the note is “FKBP selectively 13C/15N/2H labeled at valinyl and leucyl residues, 2-phenylimidazole 0.25 mM”, the “binding site residues from chemical shift changes in 13C/1H correlation spectra” value was “binding is occurring at or near the Leu^97 and Val^55 residues”. Also, the “binding to FKBP detected by chemical shift changes in 13C/1H correlation spectra” value (uniformly 13C-enriched FKBP 0.2 mM, compound about 0.25 mM, phosphate buffer pH 6.5, 30° C.) is given as “found to bind to FKBP”.

The record behind these values is US20010004528A1, “USE OF 13C NUCLEAR MAGNETIC RESONANCE TO DETECT BINDING TO TARGET MOLECULES” (priority 1995, published 2001).
